According to ChEMBL document CHEMBL1201862, “PubChem BioAssay data set” (2004):
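How tested: cells in 96-well plates exposed to compound for 48 hours at five concentrations. GI50: concentration for 50% inhibition of growth.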 Calls of active or inactive are those of the source. No stated cut-off is given here; in the data, active = GI50 up to about 1.1 µM and inactive = higher.

What was measured:
Assay in all cases: inhibition of tumour cell growth, NCI panel, 48 h
RPMI-8226 = test system: RPMI-8226
COLO 205 = test system: COLO 205
SR = test system: SR
NCI-H226 = test system: NCI-H226
CAKI-1 = test system: CAKI-1
MDA-MB-435 = test system: MDA-MB-435
OVCAR-4 = test system: OVCAR-4
SF-268 = test system: SF-268
M14 = test system: M14
SN12C = test system: SN12C
HT-29 = test system: HT-29
SNB-19 = test system: SNB-19
SK-MEL-28 = test system: SK-MEL-28
RXF 393 = test system: RXF 393
U-251 = test system: U-251
LOX IMVI = test system: LOX IMVI
DU-145 = test system: DU-145
NCI/ADR-RES = test system: NCI/ADR-RES
HCC 2998 = test system: HCC 2998
HOP-62 = test system: HOP-62

Measured: GI50

CN1Cc2cc(O)c(O)cc2C(O)C1 (stereo not given)
inactive: RPMI-8226 > 100 µM | COLO 205 > 100 µM | SR 1.19 µM | NCI-H226 > 100 µM | CAKI-1 > 100 µM | MDA-MB-435 82.6 µM | OVCAR-4 > 100 µM | SF-268 > 100 µM | M14 > 100 µM | SN12C > 100 µM | HT-29 > 100 µM | SNB-19 > 100 µM | SK-MEL-28 > 100 µM | RXF 393 > 100 µM | U-251 > 100 µM | LOX IMVI 69.2 µM | DU-145 > 100 µM | NCI/ADR-RES > 100 µM | HCC 2998 > 100 µM | HOP-62 > 100 µM
